Series [1] has as its system MCF-7. Put plainly: Cytotoxicity of EA in tumor cell line MCF-7. It counts as cell-based. Particulars: Homo sapiens, MCF7, mean of at least two experiments.
Series [2] deals with U266. Nature of the series: Cytotoxicity of EA in tumor cell line U266. The following applies: Homo sapiens, U-266, mean of at least two experiments. It counts as cell-based.
Series [3] has as its system SK-Mel-28. Put plainly: Cytotoxicity of EA in tumor cell line SK-Mel-28. The format is cell-based. Particulars: Homo sapiens, mean of at least two experiments.
Series [4] has as its system B16. Put plainly: Cytotoxicity of EA in tumor cell line B16. The following applies: Mus musculus, mean of at least two experiments. It counts as cell-based.
Series [5] concerns Primary CLL cells. Put plainly: Cell apoptosis assay (DiOC6/PI flow cytometry) in primary CLL cells. It counts as cell-based, human. Particulars: 3 μM EA; preliminary, data not shown.
Series [6] relates to PC3. Nature of the series: Cytotoxicity of EA in tumor cell line PC3. It counts as cell-based. The following applies: Homo sapiens, PC-3, mean of at least two experiments.
For series [7] the following is noted: continuous i.v. infusion, cited from earlier work.
Series [8] deals with different tumor cell lines. Nature of the series: Cytotoxicity of EA in different tumor cell lines (summary). It counts as cell-based. Particulars: read-out: mean 50% inhibitory concentration (IC50) of EA in these cell lines; range over the tumor cell lines of Table 3.
Series [9] concerns Normal PBMC. Nature of the series: Cell viability assay (MTT) with normal peripheral blood mononuclear cells. It counts as cell-based, human. Particulars: Homo sapiens; Normal PBMC from five normal individuals; 48 hours; mean.
The test system of series [10] is LNCap. Nature of the series: Cytotoxicity of EA in tumor cell line LNCap. The following applies: Homo sapiens, mean of at least two experiments. It counts as cell-based.
For series [11], the system named is Wnt/β-catenin signaling. Put plainly: TOPflash reporter assay in SW480 cells. The format is cell-based, human. The following applies: 24 hours. As to the method: FIG. 7. EA destabilizes the LEF-1/β-catenin complex. (A) SW480 cells were treated with increasing amounts of EA for 16 hours. Cells were lysed, and IP was completed with anti-β-catenin monoclonal antibody. The immune complexes were analyzed by immunoblotting with anti-LEF-1, anti-α-catenin and anti-β-catenin antibodies. (B) EA inhibits Wnt/β-catenin signaling in SW480 cells. SW480 cells were transfected with TOPflash reporter and control plasmid pCMXβgal. After transfection for 24 hours, cells were treated with increasing concentrations of EA for another 24 hours as indicated. Cells were then harvested and luciferase values were determined. The results are expressed as relative luciferase activity (%) normalized to a β-galactosidase control. For screening of the drug library, HEK293 cells were grown for at least 24 hours in 10 cm plates prior to transfection. At 50% confluence, cells were transfected with 5 μg of TOPflash reporter, 1 μg expression vector for Dvl, 1 μg of control plasmid pCMXβgal and carrier DNA pcDNA3 plasmid for a total of 10 μg/plate. After transfection for 24 hours, cells were harvested and dispersed in 96-well microtiter plates. […] Then luciferase values were determined. In the Results section, data are expressed as fold stimulation of luciferase activity compared to the basal level. […]
(In a reporter assay the amount or activity of a reporter protein is the signal.)

The subject of series [12] is CLL cells. Put plainly: Levels of O2− or H2O2 in CLL cells treated with EA. Particulars: results not shown. It counts as cell-based, human.
In series [13] the test system is NFATc-mediated transcription. Put plainly: NFAT reporter assay in HEK293 cells. The format is cell-based, human. The following applies: 50 μM EA, 24 hours. As to the method: (§1) FIG. 1. Inhibition of Wnt/β-catenin signaling by EA. […] Cells were lysed and luciferase activity was quantified. Total protein levels were determined by Bradford Assay and serve as a control for total cell number. (B) HEK293 cells were co-transfected with TOPflash reporter construct, along with expression plasmids for Wnt1, Wnt3, LRP6, Dvl and β-catenin as indicated. […] (C) HEK293 cells were transfected with FOPflash reporter with or without an expression plasmid for β-catenin. […] (D) HEK293 cells were transfected with NFAT reporter and expression plasmid for NFATc. […] The results are expressed as fold induction of luciferase activity compared to the basal level, and are the means of three experiments±SEM. For screening of the drug library, HEK293 cells were grown for at least 24 hours in 10 cm plates prior to transfection. At 50% confluence, cells were transfected with 5 μg of TOPflash reporter, 1 μg expression vector for Dvl, 1 μg of control plasmid pCMXβgal and carrier DNA pcDNA3 plasmid for a total of 10 μg/plate. After transfection for 24 hours, cells were harvested and dispersed in 96-well microtiter plates. […] Then luciferase values were determined. In the Results section, data are expressed as fold stimulation of luciferase activity compared to the basal level. […]

Series [14] relates to Wnt/β-catenin signaling. Nature of the series: TOPflash reporter assay in transfected HEK293 cells. It counts as cell-based, human.
Series [15] concerns HepG2. Put plainly: Cytotoxicity of EA in tumor cell line HepG2. It counts as cell-based. The following applies: Homo sapiens, mean of at least two experiments.
The test system of series [16] is RAMOS. Nature of the series: Cytotoxicity of EA in tumor cell line RAMOS. The format is cell-based. Particulars: Homo sapiens, mean of at least two experiments.
Series [17] has as its system HCT116. Nature of the series: Cytotoxicity of EA in tumor cell line HCT116. The format is cell-based. The following applies: Homo sapiens, HCT-116, mean of at least two experiments.
Series [18] deals with FOPflash reporter. Put plainly: FOPflash reporter assay in HEK293 cells. Particulars: 50 μM EA, 24 hours. It counts as cell-based, human. As to the method:
as §1

Series [19] has as its system HT29. Put plainly: Cytotoxicity of EA in tumor cell line HT29. It counts as cell-based. The following applies: Homo sapiens, HT-29, mean of at least two experiments.

Molecules are shown by their SMILES. Several values for one entry are separate records, joined by “and”; a condition that tells them apart may be missing. Identical values can stand only once.

For the compound `C=C(CC)C(=O)c1ccc(OCC(=O)O)c(Cl)c1Cl` [Compound 1, Ethacrynic acid], the IC50 in series [1] was 63 µM; in series [2] it was 90 µM; in series [3], 122 µM; in series [4] it was 201 µM; in [6] it was 67 µM; in series [8], 40 to 200 µM. The IC50 in series [9] came to 34.8 µM; in [10], 46 µM; in series [15], 223 µM; in series [16] it was 174 µM; in series [17], 58 µM; in series [19], 56 µM. Moreover, the “effect on fludarabine-mediated apoptosis of CLL cells” value in series [5] was “enhanced”. In series [7] (above 1 μg/ml), the “time for which plasma concentrations are sustained” value was “up to 3 hours”. Further, the sustained plasma concentrations result in series [7] (listed as EA) is “greater than 1 μg/ml and > 3.3 μM”. Further, the “concentrations with dose-dependent inhibition of TOPflash activity” value in series [11] was at least 60 µM. Besides, in [12], the “levels of O2− or H2O2 in CLL cells” value is on record as “no significant increase”. Also, the “effect on NFATc-mediated transcription from a NFAT reporter” value in series [13] was “did not block”. Moreover, the “effect on Wnt1/LRP6 or Wnt3/LRP6, Dvl, and β-catenin-induced transcription” value in series [14] (50 μM EA, 24 hours) is reported as “reduced”. Further, the “inhibition of TOPflash activity (drug library screen)” value in series [14] (Dvl-activated, generally at 10 μM and 50 μM, overnight) was at least 30%. Besides, in series [18], the “effect on the FOPflash reporter” value is reported as “no effect”.

The values are drawn from patent US20110306671A1, “AMIDE DERIVATIVES OF ETHACRYNIC ACID” (The Regents of the The University of California, priority 2008, published 2011).
